Laboratory results: patent publication US9586993B2, “CD44v6-derived peptides for treating pancreatic cancer” (AMCURE GMBH, priority 2012, dated 2017)

Experiments:
[1] = system: L3.6p1 pancreatic carcinoma cells; experiment: Human orthotopic model, L3.6p1 cells in the pancreas of nude mice; assay type: in vivo, mouse; conditions: for outgrowth / size of the primary tumor: 20 μg per injection i.p. three times per week for three weeks
Experimental: In the case of the human orthotopic model, L3.6p1 pancreatic carcinoma cells (passage 24-26) were suspended in Hank's balanced salt solution (Invitrogen, Karlsruhe, Germany) after trypsinization. The cells were injected orthotopically in the pancreas of male nude mice as described (Bruns C J et al. (1999) Neoplasia 1(1):50-62). Two groups of 15 mice each were injected i.p. 7 days later with either the human v6 peptide respectively rat control peptide (20 μg). For all experiments described and depicted herein either the rat 14mer control peptide or the human 14mer peptide were used. All experiments were then repeated with the rat 5mer control peptide or the human 5mer peptide (N-R-W-H-E, SEQ ID NO: 2). […] The injection was repeated three times per week for 21 days. Two days after the last treatment the animals were killed.
7 μm thick paraffin sections were deparaffinized and rehydrated. For P-Met staining antigen unmasking was achieved by boiling the slides in 1 mM EDTA pH 8.0 followed by incubation for 15 minutes at a sub-boiling temperature, for CD31 staining the sections were treated with Proteinase K (8 μg/ml) for 10 min at 37° C. For immunofluorescence staining of P-Met, unspecific binding was blocked with 5% goat serum (DAKO, Glostrup, Denmark) (diluted in 1×PBS/0.3% Triton X-100) for 60 minutes. In the case of immunohistochemistry, endogenous peroxidases were at first blocked with 3% H2O2 in PBS followed by incubation with biotin blocking system (Dako, Glostrup, Denmark) and then unspecific binding was inhibited by incubation with 5% FCS in PBS. The sections were incubated with the P-Met antibody (D26, dilution 1:50 in 1×PBS/1% BSA/0.3% Triton X-100), Met antibody (C-28, dilution 1:50), GFP antibody (sc-101525, dilution 1:50) or antibody (5 μg/ml) over night or VFF18 (5 μg/ml) o/n at 4° C. After washing in PBS the sections were incubated with Alexa Fluor R 546 goat anti-rabbit (in case of immunofluorescence P-Met and Met staining, dilution 1:500) or a biotinylated secondary antibody (for immunohistochemical stainings rabbit anti-rat antibody for VFF18 and CD31, goat anti-rabbit for P-Met, cleaved Caspase-3 and cleaved Caspase-8 and rabbit anti-mouse for GFP, dilution 1:500) for 45 minutes. For DAB (3,3′-diaminobenzidine) staining the sections were treated with a streptavidin-peroxidase conjugate (Dako, Glostrup, Denmark) and developed with DAB substrate system (3,3′-diaminobenzidine; Biozol, Eching, Germany) For immunofluorescence DAPI was used for nuclear staining.
The three CD44v6 specific compounds (v6 5mer, PEG840-v6 5mer and PEG2000-v6 5mer of human origin) and a control peptide were applied in three concentrations (2 μg, 20 μg, 200 μg per injection) three times per week i.p. for 4 weeks. One week before start of the treatment the L3.6p1 tumor cells were orthotopically implanted into nude mice.
Animals were implanted orthotopically with L3.6p1 cells. Tumor growth was allowed for one week before the treatment with the linear v6 14mer, the cyclic v6 8mer as well as the control peptide (rat v6 14mer) was started. All peptides were injected three times per week at a concentration of 0.2, 2 and 10 μg per injection for 3 weeks. At the end of the treatment animals were sacrificed.
A comparison of different CD44v6 peptide derivatives was performed in animals bearing a orthotopic L3.6p1 tumor. 10 groups of 5 animals each received a dose of 20 μg peptide per injection three times per week for 3 weeks with the compounds listed in Table 4. Three weeks after starting the treatment the animals were sacrificed and analyzed for macroscopic metastases and tumor volume.

[2] = system: c-Met and Erk phosphorylation; experiment: HGF-induced c-Met and Erk phosphorylation in HT29 cells (western blot); assay type: cell-based, human
Experimental: FIG. 12: A: Activation of Met and signal transduction induced by HGF depends on CD44v6 in L3.6p1 cells. L3.6p1 cells were treated with the human v6 peptide (human v6 14mer) or the rat v6 peptide as control prior to induction with 10 ng/ml HGF. Activation of Met and ERK was determined in western blot. The numbers refer to the fold induction. The experiment was repeated at least 5 times. B: Activation of c-Met and signal transduction induced by HGF depends on CD44v6 HeLa cells. Starved HeLa cells respectively HT29 cells were incubated with the v6 peptide (human v6 14mer) or a control peptide for 10 minutes at 37° C. and then induced with 25 ng/ml of HGF for the indicated time points. Cells were then either lysed and the lysates were subjected to Western Blot analysis for phospho-Met and Met. C: Activation of c-Met and signal transduction induced by HGF depends on CD44v6 in HT29 cells. HGF-induced c-Met and Erk phosphorylation in HT29 was determined as described above using phospho-specific antibodies. […]
The contribution of CD44v6 to Met signaling in the human epithelial pancreatic cancer cells L3.6p1 (derived from Colo 357), the cervix carcinoma cells HeLa and the colon cancer cells HT29 were analysed using the CD44v6 peptide (v6 14mer; v6 5mer tested as well, data not shown).

## KEQWFGNRWHEGYR [human 14mer, human CD44v6 14mer peptide]
[1]; 0.2 μg per injection three times per week for 3 weeks
  metastasis formation (liver): showed liver metastases but the average number of metastases per animal was reduced
[1]; 2 μg per injection i.p. three times per week
  metastasis formation (liver): showed liver metastases but the average number of metastases per animal was reduced
[1]; 10 μg per injection three times per week for 3 weeks
  metastasis formation (liver): complete inhibition of metastatic spreading
[1]; 20 μg i.p. three times per week
  tumor angiogenesis (vessel number and vessel size, CD31 staining): decreased angiogenesis
[1]; 20 μg i.p. three times per week for three weeks
  Met activation in the tumor (immunofluorescence for phospho-Met and Met): completely repressed Met activation
[1]; start one week after implantation, listed as CD44v6 14mer
  outgrowth / size of the primary tumor: significant reduction in tumor growth
[1]; start one week after implantation, listed as human v6 peptide
  outgrowth / size of the primary tumor: strongly repressed
[1]; start one week after implantation, listed as v6 14mer
  outgrowth / size of the primary tumor: strongest reduction of tumor size
[1]; 20 μg per injection i.p. three times per week, start one week after implantation
  metastasis formation (liver): complete inhibition of metastasis
[1]; 20 μg per injection i.p. three times per week, start one week after implantation, listed as human-specific peptide
  metastasis formation (liver): completely inhibited metastasis formation within the liver
[2]
  inhibition of HGF-induced activation of Met and Erk: able to prevent activation of Met and of its downstream target Erk
